Laboratory results as given in PubChem BioAssay AID330 (DTP/NCI, 2004).
“And” between values parts separate entries of the source, which are not always exact repeats. Identical values can stand only once. Inconclusive results and toxic doses are left out.

System: P388 leukemia ip, CD2F1 mice, survival T/C
Test: NCI In Vivo Anticancer Drug Screen. Data for tumor model P388 Leukemia (intraperitoneal) in CD2F1 (CDF1) mice
Conditions: endpoint: median survival time, higher = longer survival
Outline: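 Mice carrying the transplanted tumor received test compound or vehicle. Survival was recorded in each group, and the value is the treated-group measurement divided by that of the vehicle-treated control group.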

[1] = dose: 50.0 mg/kg/injection, schedule: Q01DX005 (ip), vehicle: Klucel (hydroxypropylcellulose) (HPC)
[2] = dose: 100.0 mg/kg/injection, schedule: Q01DX005 (ip), vehicle: Klucel (hydroxypropylcellulose) (HPC)
[3] = dose: 200.0 mg/kg/injection, schedule: Q01DX005 (ip), vehicle: Klucel (hydroxypropylcellulose) (HPC)
[4] = dose: 60.0 mg/kg/injection, schedule: Q01DX005 (ip), vehicle: saline with Tween-80
[5] = dose: 120.0 mg/kg/injection, schedule: Q01DX005 (ip), vehicle: saline with Tween-80
[6] = dose: 240.0 mg/kg/injection, schedule: Q01DX005 (ip), vehicle: saline with Tween-80
[7] = dose: 25.0 mg/kg/injection, schedule: Q01DX005 (ip), vehicle: saline with Tween-80
[8] = dose: 50.0 mg/kg/injection, schedule: Q01DX005 (ip), vehicle: saline with Tween-80
[9] = dose: 50.0 mg/kg/injection, schedule: Q04DX002 (ip), vehicle: saline with Tween-80
[10] = dose: 100.0 mg/kg/injection, schedule: Q04DX002 (ip), vehicle: saline with Tween-80
[11] = dose: 200.0 mg/kg/injection, schedule: Q04DX002 (ip), vehicle: saline with Tween-80

Q: For Cc1cc(C)c(Cn2c(=O)[nH][nH]c2=O)cc1Cn1c(=O)[nH][nH]c1=O, which T/C (dose: 50.0 mg/kg/injection, schedule: Q01DX009 (ip), vehicle: Klucel (hydroxypropylcellulose) (HPC)) is on record?
A: 107 % of control

Q: What about the T/C (dose: 100.0 mg/kg/injection, schedule: Q01DX009 (ip), vehicle: Klucel (hydroxypropylcellulose) (HPC)) of the same compound?
A: 100 % of control

Q: What about the T/C (dose: 200.0 mg/kg/injection, schedule: Q01DX009 (ip), vehicle: Klucel (hydroxypropylcellulose) (HPC)) of the same compound?
A: 100 % of control

Q: What does the source list for Cc1ccc(Br)c(C(O)(C(F)(F)F)C(F)(F)F)c1?
A: T/C (dose: 100.0 mg/kg/injection, schedule: Q01DX001 (ip), vehicle: other): 103 % of control and 104 % of control; T/C (dose: 200.0 mg/kg/injection, schedule: Q01DX001 (ip), vehicle: other): 101 % of control; T/C (dose: 400.0 mg/kg/injection, schedule: Q01DX001 (ip), vehicle: other): 111 % of control and 108 % of control

Q: For O=C1OC2(c3ccc(O)cc3Oc3cc(O)ccc32)c2cccc3cccc1c23, which T/C [1] is on record?
A: 105 % of control

Q: And the T/C [2]?
A: 99 % of control

Q: And the T/C [3]?
A: 103 % of control

Q: How did the T/C [4] turn out when CC(C)(C)c1cc(/C=N/NC(=O)CC2CCCCC2)cc(C(C)(C)C)c1O was run?
A: 96 % of control

Q: And the T/C [5]?
A: 100 % of control

Q: What about the T/C [6] of the same compound?
A: 87 % of control

Q: For CO[C@@]12[C@H](COC(N)=O)C3=C(C(=O)C(C)=C(NCCO)C3=O)N1C[C@@H]1N[C@@H]12, which T/C (dose: 12.5 mg/kg/injection, schedule: Q01DX009 (ip), vehicle: saline sonified) is on record?
A: 95 % of control

Q: And the T/C (dose: 12.5 mg/kg/injection, schedule: Q04DX003 (ip), vehicle: saline with Tween-80)?
A: 100 % of control

Q: And the T/C (dose: 25.0 mg/kg/injection, schedule: Q01DX009 (ip), vehicle: saline sonified)?
A: 95 % of control

Q: And the T/C (dose: 25.0 mg/kg/injection, schedule: Q04DX003 (ip), vehicle: saline with Tween-80)?
A: 100 % of control

Q: And the T/C (dose: 50.0 mg/kg/injection, schedule: Q01DX009 (ip), vehicle: saline sonified)?
A: 95 % of control

Q: What about the T/C (dose: 50.0 mg/kg/injection, schedule: Q04DX003 (ip), vehicle: saline with Tween-80) of the same compound?
A: 100 % of control

Q: With CCN(CC)C1CC(=O)C2(C)C3CCC4(C)C(C(C)C5CC(C)=C(CO)C(=O)O5)CCC4C3CC3OC32C1O (stereo not drawn) as the compound, how does the T/C (dose: 4.5 mg/kg/injection, schedule: Q01DX005 (ip), vehicle: Klucel (hydroxypropylcellulose) (HPC)) read?
A: 98 % of control

Q: What about the T/C (dose: 9.0 mg/kg/injection, schedule: Q01DX005 (ip), vehicle: Klucel (hydroxypropylcellulose) (HPC)) of the same compound?
A: 93 % of control

Q: What about the T/C (dose: 18.0 mg/kg/injection, schedule: Q01DX005 (ip), vehicle: Klucel (hydroxypropylcellulose) (HPC)) of the same compound?
A: 100 % of control

Q: And the T/C (dose: 36.0 mg/kg/injection, schedule: Q01DX005 (ip), vehicle: Klucel (hydroxypropylcellulose) (HPC))?
A: 98 % of control

Q: What about the T/C (dose: 72.0 mg/kg/injection, schedule: Q01DX005 (ip), vehicle: Klucel (hydroxypropylcellulose) (HPC)) of the same compound?
A: 100 % of control

Q: Which T/C [4] does the source give for COC(=O)c1cc(-c2ccc(O)c(OC)c2)n2c(NC(=O)Nc3ccc(Cl)cc3)nnc2n1 here?
A: 91 % of control

Q: What about the T/C [5] of the same compound?
A: 91 % of control

Q: What about the T/C [6] of the same compound?
A: 91 % of control

Q: Which T/C (dose: 50.0 mg/kg/injection, schedule: Q01DX009 (ip), vehicle: saline with Tween-80) does the source give for O=S(=O)(CCS(=O)(=O)c1ccccc1)c1ccccc1 here?
A: 92 % of control

Q: And the T/C (dose: 100.0 mg/kg/injection, schedule: Q01DX009 (ip), vehicle: saline with Tween-80)?
A: 92 % of control

Q: And the T/C (dose: 200.0 mg/kg/injection, schedule: Q01DX009 (ip), vehicle: saline with Tween-80)?
A: 89 % of control

Q: Which T/C (dose: 2.5 mg/kg/injection, schedule: Q01DX009 (ip), vehicle: Klucel (hydroxypropylcellulose) (HPC)) does the source give for O=C1C=C2C=CC(O)C(O)C2O1 (stereo not drawn) here?
A: 102 % of control

Q: What about the T/C (dose: 5.0 mg/kg/injection, schedule: Q01DX009 (ip), vehicle: Klucel (hydroxypropylcellulose) (HPC)) of the same compound?
A: 98 % of control

Q: What about the T/C (dose: 10.0 mg/kg/injection, schedule: Q01DX009 (ip), vehicle: Klucel (hydroxypropylcellulose) (HPC)) of the same compound?
A: 100 % of control

Q: And the T/C (dose: 20.0 mg/kg/injection, schedule: Q01DX009 (ip), vehicle: Klucel (hydroxypropylcellulose) (HPC))?
A: 94 % of control

Q: For O=C(Nc1ccc(CCC2=NCCCN2)cc1)c1ccc(C(=O)Nc2ccc(CCC3=NCCCN3)cc2)cc1, which T/C [7] is on record?
A: 115 % of control

Q: What about the T/C [8] of the same compound?
A: 113 % of control

Q: For CC(=O)/C=C1\N(C)c2ccccc2C1(C)C, which T/C [1] is on record?
A: 104 % of control

Q: And the T/C [2]?
A: 107 % of control

Q: What about the T/C [3] of the same compound?
A: 100 % of control

Q: What does the source list for CCCCCCN=C(N)N/N=C(\C)c1ccc2c(c1)Cc1cc(/C(C)=N/NC(N)=NCCCCCC)ccc1-2?
A: T/C (dose: 6.25 mg/kg/injection, schedule: Q04DX002 (ip), vehicle: saline with Tween-80): 98 % of control; T/C (dose: 12.5 mg/kg/injection, schedule: Q04DX002 (ip), vehicle: saline with Tween-80): 107 % of control; T/C (dose: 25.0 mg/kg/injection, schedule: Q04DX002 (ip), vehicle: saline with Tween-80): 109 % of control; T/C [9]: 116 % of control

Q: What does the source list for CCOC(=O)N1OC2C=CC1CC2 (stereo not drawn)?
A: T/C [4]: 97 % of control; T/C [5]: 102 % of control; T/C [6]: 100 % of control

Q: For CC(=O)Oc1c(I)cc(Cc2nc(C)oc2C)cc1I, which T/C (dose: 100.0 mg/kg/injection, schedule: Q01DX001 (ip), vehicle: saline) is on record?
A: 99 % of control

Q: What about the T/C (dose: 200.0 mg/kg/injection, schedule: Q01DX001 (ip), vehicle: saline) of the same compound?
A: 102 % of control

Q: What about the T/C (dose: 400.0 mg/kg/injection, schedule: Q01DX001 (ip), vehicle: saline) of the same compound?
A: 102 % of control

Q: What does the source list for CC1N(/N=C/c2ccccc2)C(c2ccccc2)C(c2ccccc2)N1/N=C/c1ccccc1 (stereo not drawn)?
A: T/C [1]: 99 % of control; T/C [2]: 98 % of control; T/C [3]: 99 % of control

Q: What does the source list for CCOC(=O)C(N)CSC(c1ccccc1)(c1ccccc1)c1ccccc1 (stereo not drawn)?
A: T/C (dose: 12.5 mg/kg/injection, schedule: Q01DX009 (ip), vehicle: water): 117 % of control and 98 % of control; T/C (dose: 25.0 mg/kg/injection, schedule: Q01DX009 (oral), vehicle: water): 114 % of control; T/C (dose: 50.0 mg/kg/injection, schedule: Q01DX009 (ip), vehicle: water): 155 % of control; T/C (dose: 200.0 mg/kg/injection, schedule: Q04DX003 (ip), vehicle: saline): 180 % of control

Q: COc1cc(C[C@H]2CC(=O)O[C@@H]2CO)cc(OC)c1OC was tested. Which T/C [9] did it give?
A: 101 % of control

Q: And the T/C [10]?
A: 99 % of control

Q: What about the T/C [11] of the same compound?
A: 96 % of control

Q: Which T/C (dose: 50.0 mg/kg/injection, schedule: Q01DX005 (ip), vehicle: saline) does the source give for CC1OC(=O)C(C2OC2C)=CC1O (stereo not drawn) here?
A: 97 % of control

Q: What about the T/C (dose: 100.0 mg/kg/injection, schedule: Q01DX005 (ip), vehicle: saline) of the same compound?
A: 105 % of control

Q: And the T/C (dose: 200.0 mg/kg/injection, schedule: Q01DX005 (ip), vehicle: saline)?
A: 105 % of control

Q: What does the source list for Oc1ccc(C(c2ccc(O)cc2)C(Cl)(Cl)Cl)cc1?
A: T/C (dose: 50.0 mg/kg/injection, schedule: Q04DX003 (ip), vehicle: saline + Tween-80 + alcohol): 104 % of control; T/C (dose: 100.0 mg/kg/injection, schedule: Q04DX003 (ip), vehicle: saline + Tween-80 + alcohol): 101 % of control; T/C (dose: 200.0 mg/kg/injection, schedule: Q04DX003 (ip), vehicle: saline + Tween-80 + alcohol): 103 % of control; T/C (dose: 400.0 mg/kg/injection, schedule: Q04DX003 (ip), vehicle: saline + Tween-80 + alcohol): 111 % of control

Q: CC1/C=C/C=C/CC/C=C/C=C/C=C/C=C/C(OC2OC(C)C(O)C(N)C2O)CC2OC(CC(O)C(O)CCC(O)CC(O)CC(O)CC(=O)OC(C)C(C)C1O)CC(O)C2C(=O)O (stereo not drawn) was tested. Which T/C (dose: 6.25 mg/kg/injection, schedule: Q01DX005 (ip), vehicle: saline with Tween-80) did it give?
A: 95 % of control

Q: What about the T/C (dose: 9.5 mg/kg/injection, schedule: Q01DX009 (ip), vehicle: saline sonified) of the same compound?
A: 100 % of control

Q: And the T/C (dose: 12.5 mg/kg/injection, schedule: Q01DX005 (ip), vehicle: saline with Tween-80)?
A: 109 % of control

Q: What about the T/C (dose: 19.0 mg/kg/injection, schedule: Q01DX009 (ip), vehicle: saline sonified) of the same compound?
A: 95 % of control

Q: And the T/C [7]?
A: 104 % of control

Q: What about the T/C (dose: 38.0 mg/kg/injection, schedule: Q01DX009 (ip), vehicle: saline sonified) of the same compound?
A: 100 % of control

Q: What about the T/C [8] of the same compound?
A: 95 % of control

Q: Which results are given for CCCNC(=O)/C(C)=C(\C)c1ccccc1?
A: T/C (dose: 50.0 mg/kg/injection, schedule: Q04DX003 (ip), vehicle: Klucel (hydroxypropylcellulose) (HPC)): 100 % of control; T/C (dose: 100.0 mg/kg/injection, schedule: Q04DX003 (ip), vehicle: Klucel (hydroxypropylcellulose) (HPC)): 99 % of control; T/C (dose: 200.0 mg/kg/injection, schedule: Q04DX003 (ip), vehicle: Klucel (hydroxypropylcellulose) (HPC)): 100 % of control

Q: Which T/C [10] does the source give for CCN(CC)Cc1cc(C)c(O)c(N=Nc2cccc3ccccc23)c1C here?
A: 86 % of control

Q: What about the T/C [11] of the same compound?
A: 91 % of control

Q: What about the T/C (dose: 400.0 mg/kg/injection, schedule: Q04DX002 (ip), vehicle: saline with Tween-80) of the same compound?
A: 109 % of control
